Results reported in a melting point compilation (Tetko et al.; mined from patent text by program, amines drawn as free bases though some values may be those of a salt).

| SMILES | melting point [°C] |
| --- | --- |
| O=C(Nc1ccnnc1)NC1CCCCCC1 | 226 to 228 |
| Cc1ncc(Cn2c(CC3CCN(CCc4c(C)nc5sccn5c4=O)CC3)nc3ccccc32)o1 | 174 |
| C[C@@H]1CCCC[C@H]1C(=O)O (relative stereo) | 51 to 53 |
| COC(=O)c1ccc(OCCNC(=O)C2Cc3ccccc3N2S(=O)(=O)c2ccc(-c3cccc(C(F)(F)F)c3)cc2)c(C)c1 (stereo not given) | 68 to 74 |
| CNC(=S)Nc1ccccc1N1CCOCC1 | 115 to 116 |
| O=C(O)COCCc1cc2cc(Cl)ccc2n1S(=O)(=O)c1ccccc1 | 135 to 137 |
| O=C(OCCOCCO)c1ccc(O)c(Cl)c1 | 77.5 to 78 |
| O=C(O)CCC[C@@H](O)[C@@H](CCc1ccccc1)S(=O)(=O)c1ccccc1 (relative stereo) | 100 to 102 |
| CCOP(=O)(CCNCc1c(N)c(=O)c1=O)OCC | 130 to 132 |
| Cn1c(CCN2CCN(c3ccc(Cl)cc3)CC2)nc2ccc3ccccc3c21 | 213 to 215 |
| Clc1cccc(Nc2ncnc3[nH]nc(NCc4ccc(-c5cncs5)cc4)c23)c1 | 235 |
| COc1ccc(C(=O)N(c2ccccc2)c2ccc(OCCCN(C)C)cc2)cc1 | 111 to 115 |
| Cc1cc(OCc2ccccc2)ccc1CC#N | 51 to 52 |
| Cc1c(-c2cc(C(C)(C)C)c(O)c(C(C)(C)C)c2)nc2n1CCS2 | 258 to 261 |
| COC(=O)c1cc(C(=O)OC)c(NCCCc2ccccc2)cn1 | 102 to 104 |
| COCCCN1CCC(CNC(=O)c2cc(Cl)c(N)c(OC)c2OC)C(O)C1 (stereo not given) | 110 |
| CN(C)Cc1nc(CSCCNC(=C[N+](=O)[O-])NC2CC2)cs1 | 128 to 132 |
| CCOC(=O)c1cc2cc(OCCCOC)cc(N)c2[nH]1 | 139 to 140 |
| Fc1c(Cl)cccc1/C=C/c1noc(C(Cl)(Cl)Cl)n1 | 37 to 38 |
| OC1CCNc2ncc(Br)cc21 (stereo not given) | 125 to 128 |

| SMILES | melting point [°C] |
| --- | --- |
| CCCCc1nc2cccc(COC)c2n1Cc1ccc(-c2ccccc2CO)cc1 | 126 to 127 |
| CC(C)c1cccc(C(C)C)c1OC(=O)CCC(=O)O | 101 to 102 |
| O=C(CCCCCCCCCCC(=O)Oc1cc(O)cc(O)c1)Oc1cc(O)cc(O)c1 | 140 to 145 |
| CS(=O)(=O)c1cc2c(cc1O)CCNCC2 | 241 to 242 |
| CCOC(=O)C1Cc2c(OC)cc(Cl)c(OC)c2CO1 (stereo not given) | 95 |
| CN1CCC(c2c[nH]c3ccc(-n4ccnn4)cc23)CC1 | 251 to 254 |
| CCOC(=O)c1ncn2c(-c3cccnc3)ccnc12 | 184 to 186 |
| CN1CC2Cc3ccc(Cl)cc3C(=O)C2C1 (stereo not given) | 148 to 150 |
| COc1cc(C(C)C)c(Oc2cnc(NC(CO)CO)nc2N)cc1I | 158 to 159 |
| CN1Cc2c(C(=O)OCCO)ncn2-c2ccccc2C1=O | 222 to 223 |
| CCCC12CCC3=C(CCc4cc(OC)ccc43)C1CCC21OCCO1 (stereo not given) | 119 to 120 |
| O=C(NCc1cccs1)n1cc(F)c(=O)[nH]c1=O | 131 to 132 |
| S=C(NN=C(CCCCl)c1ccccc1)Nc1ccccc1 | 107 to 109 |
| CCCNC(=O)C=Cc1ccc2ccn(Cc3ccc(C(=O)O)cc3OC)c2c1 | 210 to 212 |
| CCOC(=O)N1CCN(c2ccc(-n3cnn(C(C)(C)C(=O)c4ccc(Cl)cc4)c3=O)cc2)CC1 | 137 |
| COc1ccc(-n2nc(C(F)(F)F)nc2-c2ccc(S(N)(=O)=O)cc2)cc1 | 228 |
| CCc1c2c(nn1C)c(N)nc1ccccc12 | 257 to 259 |
| Cc1cc2cc(C#N)c(Cl)nc2s1 | 171 to 173 |
| CCOC(=O)C1(C(=O)OCC)CCC2(CC1)NCCc1cc(OC)c(OC)cc12 | 103 to 104 |
| CCOC(=O)C=Cc1ccn(C)c(=O)c1 | 126 to 127 |

| SMILES | melting point [°C] |
| --- | --- |
| CCN(CC)C(=O)NC1CC2c3cccc4[nH]c(CC#CO)c(c34)CC2N(C)C1 (stereo not given) | 151 to 154 |
| OCC1OC(n2ccnn2)C(O)C1O (stereo not given) | 123 to 125 |
| CC(=O)NCC1CC(c2ccc(N3CCOCC3)c(F)c2)=NO1 (single isomer, unassigned; (-)) | 179 to 180 |
| O=C(O)C(CCc1ccccc1)NS(=O)(=O)c1ccc2c(c1)S(=O)(=O)c1ccccc1O2 (stereo not given) | 170 to 174 |
| c1ccc(C(c2ccccc2)N2CCN(CCCn3c(C4CCCCC4)nc4ccccc43)CC2)cc1 | 115 |
| CC(=O)OC1CSC(Sc2ccc(C(F)(F)F)cc2)C(OC(C)=O)C1OC(C)=O (stereo not given) | 160 |
| CC(C)N1C(=O)N(c2ccc(C#N)c(C(F)(F)F)c2)C(=O)C1(CO)CO | 172 to 173 |
| O=C(OC1C(OCCBr)OC(COCc2ccccc2)C(O)C1OC(=O)c1ccccc1)c1ccccc1 (stereo not given) | 78 to 80 |
| CCC(Cc1cc(C(C)(C)C)c(O)c(C(C)(C)C)c1)(C(=O)OCC1(C)C(C)(C)C=C(O)CC1(C)C)C(=O)OCC1(C)C(C)(C)C=C(O)CC1(C)C (stereo not given) | 166 |
| CC(C)c1cccc(C(C)C)c1NC(=O)Nc1nnnn1Cc1ccccc1 | 195 to 197 |
| CC(C)(C)OC(=O)N1CCOc2ccc(Br)cc2S1(=O)=O | 119 |
| CCCCC1(N(C)C)CCC(c2[nH]c3ccc(C(F)(F)F)cc3c2C)CC1 (stereo not given) | 141 to 146 |
| O=S(=O)(CI)c1ncc(Cl)cn1 | 152 |
| Ic1nnnn1Cc1ccccc1 | 122 |
| CCCCCN1C(=O)C(CCC(=O)O)(NC(=O)c2cc3ccccc3n2CCC#N)c2ccccc21 (stereo not given) | 125 |
| COc1ccc(N(C(=O)OC(C)(C)C)S(=O)(=O)c2ccc(F)cc2)cc1OC | 99 to 102 |
| FC(F)(F)c1cc(Br)cc(C(F)(F)F)n1 | 92 to 95 |
| N#CCNC(=O)c1ccnc(F)c1 | 124 to 125 |
| CC(=O)NCC1CN(c2ccc(N3CC4CCCN(C(=O)COC(C)=O)C4C3)c(F)c2)C(=O)O1 (stereo not given) | 113 to 116 |
| COc1ccc(-c2cnc(-c3ccc(F)cc3)nc2-c2ccc(OC)cc2)cc1 | 129 to 130 |

Results, then the compound that gave them:

| melting point [°C] | SMILES |
| --- | --- |
| 196 to 198 | CCOc1cc2ncc(C#N)c(Nc3ccc(F)c(Cl)c3)c2cc1NC(=O)C=CCN(C)C |
| 250 | Cc1cc2c(c(NC(C(N)=O)c3c(Cl)cccc3Cl)c1)C(=O)CC2 (stereo not given) |
| 43 to 44 | Cc1ccc2c(c1C)C(=O)CC2 |
| 55 to 60 | CC1=C(C(=O)N(C)Cc2ccc(Cl)cc2Cl)SC2=NCCN21 |
| 157 to 158 | Cn1c(CC(=O)O)cc2c1C(=O)c1sccc1CC2 |
| 178 to 180 | CC(=O)c1c(SSc2c(C(C)=O)c3ccccc3n2C)n(C)c2ccccc12 |
| 58 to 60 | C[C@@H](C(N)=O)c1ccc(NS(=O)(=O)c2cccs2)cc1 |
| 98 to 100 | O=C1C=C(Nc2ccccc2F)CCN1 |
| 130 to 131 | Cn1cc(-c2cccc(C(F)(F)F)c2)c(=O)n1-c1cccc(Cl)c1 |
| 206 to 212 | Cc1cccc2c1N(N=C=O)C(=O)CN=C2 |
| 98 to 100 | COC(=O)Cc1ccc(O)c(NC(=O)c2c(C)c(OC)c(C)c(C)c2OC)c1 |
| 242 to 245 | Cc1nc(C)n(-c2cc(C)c3[nH]c(=O)ccc3c2)c1I |
| 185 | O=C(O)c1cc(-c2ccc(Cl)cc2)n(-c2ccc(Cl)cc2Cl)n1 |
| 98 | Cn1c(OC2CCOC2)nn(C(=O)Oc2ccccc2)c1=O (stereo not given) |
| 231 to 234 | COC(=O)C=Cc1cc(O)cc2cc(-c3ccc(O)cc3)oc12 |
| 251 to 252 | O=c1c2ccc(Cl)cc2[nH]c2c(O)nn(CC#Cc3ccc(Cl)cc3)c(=O)c12 |
| 231 | CCOC(=O)Cn1c2c(n(Cc3ccccc3)c(=O)c1=O)CCC1=C2C=C(N)CC1 |
| 245 to 247 | Cc1ccc(-c2nc(C(F)(F)F)nn2-c2ccc(S(N)(=O)=O)cc2)cc1 |
| 125 to 126 | Clc1cccc(CSc2nnc(-c3ccc4occc4c3)o2)c1 |
| 213 to 215 | Cc1ncc(CNC(=O)c2sc(N3CCN(Cc4ccc(F)cc4)C3=O)nc2C)s1 |

| melting point [°C] | SMILES |
| --- | --- |
| 154 to 157 | CCOC1CN(Cc2ccc(OC)cc2)Cc2cc(OC)c(O)cc21 (stereo not given) |
| 250 to 252 | CC(C)NC1=NS(=O)(=O)c2ccc(Oc3ccccc3)cc2N1 |
| 89.5 to 90.3 | CCOC(=O)C(NC(=O)c1ccc(Cl)cc1)C(=O)OCC |
| 190 to 193 | Cc1ccc(NC(=O)N[C@]2(C3CCCCC3)N=Cc3ccccc3N(C)C2=O)cc1Nc1nnn[nH]1 |
| 125 to 129 | O=C(Oc1ccccn1)c1cc2cc(CCl)ccc2oc1=O |
| 100 to 103 | c1ccc2c(Nc3ccc4c(c3)CCC4)ncc(Sc3ccncc3)c2c1 |
| 159 to 160 | Cc1ccc(N2N=C3c4cc(CCO)sc4CCC3CC2=O)cc1 (stereo not given) |
| 217 | O=C(O)Cc1c(C(=O)c2ccc3c(c2)CCO3)[nH]c2cc(Cl)ccc12 |
| 287 to 290 | Cc1cc2c(=O)[nH]c(CCl)nc2cc1Cl |
| 277 to 278 | COc1ccc(C(=O)Nc2c(C)c(C)c3c(c2C)C(c2ccc(C(C)C)cc2)C2(CCN(C)CC2)O3)cc1 (stereo not given) |
| 116 | CCN(CC)C(=O)c1cc2ccccc2c(-c2cccc(Cl)c2)n1 |
| 184 to 185 | COc1ccc(C(=O)Nc2cccnc2)cc1Nc1cccc(C(F)(F)F)c1 |
| 132 to 135 | CC(=O)OCCCOc1cccc2cc(C#N)c(=O)oc12 |
| 221 to 222 | Cc1cc(C)cc(Sc2c(C)c[nH]c(=O)c2NC=O)c1 |
| 148 | CN(c1ccccc1-c1ccc2cnc(Nc3ccc(N4CCN(CC(N)=O)CC4)c(F)c3)nn12)S(C)(=O)=O |
| 249 to 251 | CS(=O)(=O)c1ccc(-c2nc(C(F)(F)F)[nH]c2-c2ccc(Cl)c(Cl)c2)cc1 |
| 110 to 111 | COc1cc2c(cc1O)CCN(Cc1cc(F)cc(F)c1)C2 |
| 110 to 122 | CC(C)Oc1ccc(NCCS(=O)(=O)NCCCOc2cccc(CN3CCCCC3)c2)cc1 |
| 183 to 185 | CN1C2=C(C(=O)CC(C)(C)C2)C(c2ccc(Cl)c(Oc3ccccc3)c2)C2=C1CC(C)(C)CC2=O |
| 174 | CCOC(=O)C1=C(C)NC(N)=C(C(=O)OCCOC)C1c1cccc([N+](=O)[O-])c1 (stereo not given) |
